Measurements from patent US9182408B2 (priority 2004, dated 2015).
Where two headings read alike, the source gives them in different places.

Assays:
[1] = biological target: ERα (Homo sapiens, UniProt P03372)
Experimental: (§1) Yeast two-hybrid experiments are carried out in the yeast strain (MATa; his3-Δ200; leu2-3,112; trp1-901; [plexAop]4::HIS3; [plexAop]8::lacZ), in which expression of the two reporter genes HIS3 and LacZ is under the control of the LexA operator sequence. This yeast strain cannot grow in absence of histidine in the culture medium, and yeast growth can be rescued only if expression of HIS3 gene is induced. Similarly, the LacZ reporter gene encoding the β-galactosidase marker is not expressed in this yeast strain. The bait plasmids encoding either the full-length or a region of the target protein (Nuclear Receptor, viral proteins for example), and the random peptide/VP16-AD library were transformed into the yeast strain and yeast colonies growing in absence of histidine were selected. […] Growth of false positive clones may be prevented by adding 3-amino-triazole (3AT), a competitive inhibitor of HIS3, to the medium. […] All conformation sensitive peptides dissociated by both target protein agonists and antagonists were selected for further characterization with the aim to develop screening platforms that allow the search of both activators and inhibitors of target protein in one single assay. The biological activity of each isolated conformation sensitive peptide is reconfirmed by isolation of conformation sensitive peptide encoding plasmids, re-transformation into yeast strain and analysis of HIS3 and lacZ gene expression in absence of histidine and in presence of target protein or non-target protein ligands in a spot test, as well as in a quantitative LacZ assay. 4.1—Identification in Yeast of Conformation Sensitive Peptides Interacting with the Estrogen Receptor
The bait plasmids encoding the full length or the DEF regions of the ERα and the prey peptide/VP16-AD VV01 library (diversity of 6.10^7) were transformed into the yeast strain. Yeast colonies growing in absence of histidine were selected. […] Growth of false positive clones was prevented by adding 3-amino-triazole (3AT), a competitive inhibitor of HIS3 to the medium. […] Out of the 484 clones, 40 were randomly picked for further studies.
The biological activity of each isolated 3D-Screen peptide was reconfirmed by isolation of 3D-Screen encoding plasmids, retransformation into the yeast strain (MATa; his3-Δ200; leu2-3,112; trp1-901; [plexAop]4::HIS3; [plexAop]8::lacZ) and analysis of HIS3 and lacZ gene expression in absence of Histidine and in presence of ER or non-ER ligands in a spot test.

[2] = biological target: human retinoic acid receptor alpha (RARα) (Homo sapiens, UniProt P10276); conditions: RAR-DEF bait, 28 selected clones, medium without histidine
human retinoic acid receptor alpha (RARα), sequence (P10276 183-417 limits assumed): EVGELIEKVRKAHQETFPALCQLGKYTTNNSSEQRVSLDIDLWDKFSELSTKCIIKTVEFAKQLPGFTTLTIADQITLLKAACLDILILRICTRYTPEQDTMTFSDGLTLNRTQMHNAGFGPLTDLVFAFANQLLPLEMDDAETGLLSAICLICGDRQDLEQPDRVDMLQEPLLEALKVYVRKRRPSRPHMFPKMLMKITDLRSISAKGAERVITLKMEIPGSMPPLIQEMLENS
Experimental: as §1

[3] = tested on: ERα
Excerpt: FIG. 10: Generation of a 3D-screen human cell screening platform for ERα Hela cells are transiently transfected with three expression plasmids encoding the reporter gene luciferase (eg. UAS-Luc), the target protein fused to a DNA Binding Domain (DBD) and the conformation sensitive peptide previously screened in yeast and fused to the VP16-AD, respectively with the jetPEI reagent. […] This platform was used to screen a small molecule library.
Hela cells are transiently transfected with three expression plasmids encoding the reporter gene luciferase (eg. UAS-Luc), the ERα fused to a DNA Binding Domain (DBD) and the conformation sensitive peptide previously screened in yeast and fused to the VP16-AD, respectively, with the jetPEI reagent. Cells are grown in the absence of any ligand (DMSO, lane 1; ethanol, lane 2), or in the presence of ER ligands (agonists E2, DES or antagonists 4OHT, lane 3-5) or non-ER ligands (Dex and 9C-RA; lanes 8 & 9), or in the presence of Estren (lane 6) at 100 nM (right panel) and 10 μM (left panel).
Hela cells are transiently transfected with three expression plasmids encoding the reporter gene luciferase (eg. UAS-Luc), the ERα fused to a DNA Binding Domain (DBD) and the conformation sensitive peptide previously screened in yeast and fused to the VP16-AD, respectively, with the jetPEI reagent.
HeLa cells were transiently transfected with plasmid using the optimized jetPEI transfection protocol (PolyPlus Transfection, Illkirch, France). […] Chemical ligands are added to the cell culture medium 24H after transfection. Luciferase activity was measured 24H later. […] Cells are trypsinised and plated in 96 well-plates (or 384 well-plates) at 5×10^4 cells per well 24H after transfection, and small molecules are added upon cell adhesion. Luciferase activity is measured 24 H later.
The three expression plasmids, UAS-luc, full-length ER and 3D-screen/VP16AD (#30-2) were co-transfected in Hela cells in large dishes. Cells were then reseeded in a 96-well plate format 24 H after transfection and chemical compounds are added upon cell adhesion. Luciferase activity was measured 24 H later. Internal controls were also included, consisting in known ER- or non-ER ligands as previously indicated.

[4] = biological target: NS5B protein of Hepatitis C virus (Hepatitis C virus genotype 1b, UniProt P26663); conditions: NS5BΔ21 bait, medium without Histidine; Gliotoxin 20 μM
Experimental: Yeast two-hybrid experiments are carried out in the yeast strain (MATa; his3-Δ200; leu2-3,112; trp1-901; [plexAop]4::HIS3; [plexAop]8::lacZ), in which expression of the two reporter genes HIS3 and LacZ is under the control of the LexA operator sequence. This yeast strain cannot grow in absence of histidine in the culture medium, and yeast growth can be rescued only if expression of HIS3 gene is induced. Similarly, the LacZ reporter gene encoding the β-galactosidase marker is not expressed in this yeast strain. The bait plasmids encoding either the full-length or a region of the target protein (Nuclear Receptor, viral proteins for example), and the random peptide/VP16-AD library were transformed into the yeast strain and yeast colonies growing in absence of histidine were selected. […] Growth of false positive clones may be prevented by adding 3-amino-triazole (3AT), a competitive inhibitor of HIS3, to the medium. […] The biological activity of each isolated conformation sensitive peptide is reconfirmed by isolation of conformation sensitive peptide encoding plasmids, re-transformation into yeast strain and analysis of HIS3 and lacZ gene expression in absence of histidine and in presence of target protein or non-target protein ligands in a spot test, as well as in a quantitative LacZ assay. […]

[5] = biological target: wild-type ERα (Homo sapiens, UniProt P03372); conditions: HeLa, ERE-luc, 24 H
wild-type ERα, sequence (P03372 whole entry): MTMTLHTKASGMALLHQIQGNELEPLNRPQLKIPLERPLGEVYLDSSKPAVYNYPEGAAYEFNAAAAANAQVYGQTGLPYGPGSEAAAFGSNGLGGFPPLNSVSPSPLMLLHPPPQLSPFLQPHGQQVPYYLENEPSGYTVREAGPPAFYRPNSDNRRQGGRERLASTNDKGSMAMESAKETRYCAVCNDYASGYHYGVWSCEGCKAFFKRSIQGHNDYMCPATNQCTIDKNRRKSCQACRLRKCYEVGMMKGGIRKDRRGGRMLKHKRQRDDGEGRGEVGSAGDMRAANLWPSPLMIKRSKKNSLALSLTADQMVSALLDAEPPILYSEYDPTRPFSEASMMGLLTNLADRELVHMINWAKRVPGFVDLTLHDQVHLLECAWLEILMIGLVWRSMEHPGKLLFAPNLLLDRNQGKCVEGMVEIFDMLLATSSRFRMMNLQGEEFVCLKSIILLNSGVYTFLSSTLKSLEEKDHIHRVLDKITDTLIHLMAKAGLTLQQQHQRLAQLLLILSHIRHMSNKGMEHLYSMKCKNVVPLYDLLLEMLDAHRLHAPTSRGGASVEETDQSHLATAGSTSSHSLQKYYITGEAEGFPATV
Experimental: Furthermore, the potential agonist and antagonist properties of these hits were investigated in HeLa cells by co-transfection of an ERE-luc reporter plasmid, in which the luciferase gene is under the control of the estrogen-responsive elements (ERE), and an expression plasmid encoding the wild-type ERα. Transfections were performed as previously described for the primary screening, and cells are inclubated for 24 H either in the presence of the chemical hits alone to test for their agonist activity, or in the presence of the hit together with 100 nM E2 to test for their antagonist activity.

[6] = tested on: bone cells; conditions: cited from earlier work

ERα (Homo sapiens, UniProt P03372), sequence (P03372 311-547 limits assumed): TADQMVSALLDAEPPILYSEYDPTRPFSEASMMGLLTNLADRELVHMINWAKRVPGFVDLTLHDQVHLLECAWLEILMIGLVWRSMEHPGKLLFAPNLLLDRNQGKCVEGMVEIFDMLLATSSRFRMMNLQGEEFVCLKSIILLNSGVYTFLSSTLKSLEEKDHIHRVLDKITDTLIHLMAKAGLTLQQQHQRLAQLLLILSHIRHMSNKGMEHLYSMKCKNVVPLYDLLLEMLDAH

Molecule	peptide binding to ER in the presence of non-ER ligands (growth, lacZ) [1]	peptide binding to ER on addition of ER ligands (growth under selective conditions) [1]	reporter genes (His3 and LacZ) on interaction of peptide with ER in the un-liganded form [1]	luciferase expression (FIG. 13) [3]	further results
F C T P I R M F Y R A P L W D L N K [peptide 30-2]	all clones are growing under selective conditions and stain positive for lacZ	clones are not growing under selective conditions	clones are growing under selective conditions and stain positive for lacZ		
9-cis retinoic acid				strong	effect of added ligand on growth and LacZ expression of yeast clones (dissociation of peptide/VP16AD from ERα) [1]: no effect; effect of added ligand on growth of yeast clones (dissociation of peptide/VP16AD from RARα) [2]: suppresses the growth of 14 of these clones; luciferase expression (FIG. 11) [3]: strong
CN1C(=O)[C@]23CC4=CC=C[C@H](O)[C@H]4N2C(=O)[C@@]1(CO)SS3 [gliotoxin]					effect of added compound on yeast growth and HIS3/LacZ expression (dissociation of peptides from NS5B) [4]: shut-off of HIS3 and the prevention of growth of the yeast
NC(=O)c1ncn([C@@H]2O[C@H](CO)[C@@H](O)[C@H]2O)n1 [ribavirin]					effect of added compound on yeast growth and HIS3/LacZ expression (dissociation of peptides from NS5B) [4]: no effect on yeast growth
CC1=C(/C=C/C(C)=C/C=C/C(C)=C/C(=O)O)C(C)(C)CCC1 [all-trans-Retinoic Acid]				strong	effect of added ligand on growth of yeast clones (dissociation of peptide/VP16AD from RARα) [2]: suppresses the growth of 14 of these clones; effect of added ligand on growth of yeast clones (dissociation of peptide/VP16AD from RARα) ([2]; listed as AT-RA): selective dissociation of the peptide/VP16AD protein induced only by the AT-RA ligand
C[C@]12CC[C@@H]3c4ccc(O)cc4C[C@@H](CCCCCCCCC[S+]([O-])CCCC(F)(F)C(F)(F)F)[C@H]3[C@@H]1CC[C@@H]2O (stereo partly drawn) [ICI182780]				preventing the expression of luciferase	luciferase expression upon addition of ligand [3]: strongly reduced
S I T T L F Y H A M F G F V P [peptide 9-23]	all clones are growing under selective conditions and stain positive for lacZ	clones are not growing under selective conditions	clones are growing under selective conditions and stain positive for lacZ		
S C C T Q H V C Y R P R A Y R [peptide 5-21]	all clones are growing under selective conditions and stain positive for lacZ	clones are not growing under selective conditions	clones are growing under selective conditions and stain positive for lacZ		
Estren					agonist activity (hit alone) [5]: do not allow the identification; antagonist activity (hit together with 100 nM E2) [5]: do not allow the identification; apoptosis of bone cells and effect on reproductive organs [6]: prevent apoptosis of bone cells without affecting the reproductive organs; luciferase expression (FIG. 11) [3]: preventing the expression of luciferase
